# Several values for one entry are separate records, joined by “and”; a condition that tells them apart may be missing. Identical values can stand only once.
# Legend:
# Assay type in all cases: cell-based, human
# LNCaP cells = test: Clonogenic assay, LNCaP cells; conditions: for relative percent colony survival / minimal inhibitory concentration (MIC) of bicalutamide: LNCaP; for minimal inhibitory concentration (MIC) of bicalutamide: concentration that begins to inhibit colony formation
# Description: (§1) Test Solutions. SPH test solutions were prepared by adding 10 μg, 40 μg, or 160 μg of SPH powder to 1 ml of DMEM containing 0.3% FBS+2% DMSO and sonicating for 10 min just prior to use. Bicalutamide, referred to herein as BIC, (Sigma-Aldrich, Catalog No. B9061) test solutions were prepared by adding 0.43 or 4.3 μg to 1 ml (1 μM and 10 μM) of DMEM containing 0.3% FBS+2% DMSO and sonicating for 10 min just prior to use.
# (§2) Cell Culture. The C4 subline (CRL-3313™, RRID: CVCL 4783), which was derived from the human prostate carcinoma cell line LNCaP, was obtained from ATCC (Manassas, VA). C4, which is referred to herein as LNCaP, is an exemplary androgen receptor-positive (AR+ve) cell line that has an epithelial-like morphology and a low metastatic potential. The PC-3 cell line (CRL-1435, RRID: CVCL_0035) was obtained from ATCC (Manassas, VA). PC-3 is an exemplary androgen receptor-negative (AR−ve) cell line that has an epithelial morphology and a high metastatic potential. The Vertebral-Cancer of the Prostate (VCaP) cell line was obtained from Sigma-Aldrich, USA (Catalog No. 06020201). VCaP is a human cell line with an epithelial morphology that was established from a metastatic prostate cancer lesion (Korenchuk et al., In Vivo, 15(2):163˜168, 2001). VCaP cells are androgen receptor-positive and express high levels of prostate-specific antigen. The VCaP-EnzR cell line was also obtained from Sigma-Aldrich, USA (Catalog No. SCC421). […] VCaP-EnzR cells are enzalutamide-resistant and therefore are a suitable model for studying castration-resistant prostate cancer. All cell lines were cultured in RPMI1640 supplemented with 2 mmol/L L-glutamine. 100 U/mL penicillin, […] streptomycin, and 10% heat-inactivated fetal bovine serum. All cells were certified negative for Mycoplasma.
# (§3) Clonogenic Assay. Confluent cells were trypsinized and seeded at densities ranging from 3000 to 5000 cells in 10 cm Petri dishes, depending on the cell line, as recommended in the ATCC or Sigma-Aldrich product sheets. […] Treatments were applied daily for 5 days without media changes. The colonies were allowed to develop over 12 days, stained with crystal violet and automatically counted using a TC20 Automated Cell Counter (Bio Rad, Hercules, CA). Each assay was internally controlled using untreated cells (cell media+0.1% DMSO). Relative plating efficiencies were expressed as percentages relative to the plating efficiency of untreated cells and reported as the relative percent colony survival value. All experiments were performed in triplicate.
# (§4) All oligopeptides were tested in combination with BIC or ENZ in clonogenic assays. […] SPH absent wells (DMSO 0.04%) were used as the negative control. All experiments were run in triplicate.
# PC3 cells = test: Clonogenic assay, PC3 cells
# Description: as §1, §2, §3, §4
# [1] = system: ferritin heavy chain 1 (FTH1) mRNA; test: FTH1 gene expression by qRT-PCR in LNCaP cells
# Description: (§5) Gene Expression. LNCaP, PC-3, VCaP, and VCaP-EnzR cells were seeded in 24-well plates and maintained in RPMI1640 medium supplemented with 2 mmol/L L-glutamine. 100 U/mL penicillin, […] streptomycin, and 10% heat-inactivated fetal bovine serum at 37° C. in a humidified 5% CO2 atmosphere. […] SPH absent wells (DMSO 0.04%) were used as the negative control. All experiments were run in triplicate.
# (§6) Samples were studied for expression of the ferritin heavy chain 1 (FTH1) and transferrin receptor 1 ([…]) genes. Total RNA was extracted from cell pellets using the UPzol reagent (Biotechrabbit), followed by DNAse treatment (DNAse TURBO) according to the manufacturers' protocols. Complementary DNA (cDNA) was synthesized with the High Capacity cDNA Reverse Transcription Kit (Applied Biosystems) using random hexamers. Gene expression levels were measured by qRT-PCR.
# (§7) 1 μl of cDNA (corresponding to 50 ng of reverse transcribed RNA) was amplified by Qpcr (QuantStudio™ 6 Flex Real-Time PCR System), using TaqMan™ Universal PCR Master Mix (Catalog No. 4304437) and a TaqMan™ assay (Roche Molecular Systems, Inc., Pleasanton, CA). FTH1 and TFRC gene expression was estimated relative to expression of the housekeeping gene, beta-actin (ACTB), following the standard formula: 2-ΔCt. TaqMan probe IDs used include: (i) FTH1, Hs01694011_s1; (ii) TFRC, Hs00951083_m1; and (iii) ACTB, Hs01060665_g1. […]
# [2] = system: transferrin receptor 1 (TFRC) mRNA; test: TFRC gene expression by qRT-PCR in LNCaP cells
# Description: as §5, §6, §7
# [3] = system: ferritin heavy chain 1 (FTH1) mRNA; test: FTH1 gene expression by qRT-PCR in PC3 cells
# Description: as §5, §6, §7
# [4] = system: transferrin receptor 1 (TFRC) mRNA; test: TFRC gene expression by qRT-PCR in PC3 cells
# Description: as §5, §6, §7
# VCaP cells = test: Clonogenic assay, VCaP cells; conditions: 10 μM oligopeptide with […] enzalutamide, p<0.01
# Description: as §1
# (§8) Cell Culture. The C4 subline (CRL-3313™, RRID: CVCL 4783), which was derived from the human prostate carcinoma cell line LNCaP, was obtained from ATCC (Manassas, VA). C4, which is referred to herein as LNCaP, is an exemplary androgen receptor-positive (AR+ve) cell line that has an epithelial-like morphology and a low metastatic potential. The PC-3 cell line (CRL-1435, RRID: CVCL_0035) was obtained from ATCC (Manassas, VA). PC-3 is an exemplary androgen receptor-negative (AR−ve) cell line that has an epithelial morphology and a high metastatic potential. The Vertebral-Cancer of the Prostate (VCaP) cell line was obtained from Sigma-Aldrich, USA (Catalog No. 06020201). […]
# (§9) Clonogenic Assay. […] The colonies were allowed to develop over 12 days, stained with crystal violet and automatically counted using a TC20 Automated Cell Counter (Bio Rad, Hercules, CA). […]
# VCaP-EnzR cells = test: Clonogenic assay, VCaP-EnzR cells; conditions: 10 μM oligopeptide with […] μM enzalutamide, p<0.001
# Description: as §1, §8, §9
# [5] = system: ferritin heavy chain 1 (FTH1) mRNA; test: FTH1 gene expression by qRT-PCR in VCaP cells; conditions: oligopeptide at 10 μM with […] ENZ
# Description: as §5, §6, §7
# [6] = system: transferrin receptor 1 (TFRC) mRNA; test: TFRC gene expression by qRT-PCR in VCaP cells; conditions: oligopeptide at 10 μM with […] ENZ
# Description: as §5, §6, §7
# [7] = system: ferritin heavy chain 1 (FTH1) mRNA; test: FTH1 gene expression by qRT-PCR in VCaP-EnzR cells; conditions: oligopeptide at 10 μM with […] μM ENZ
# Description: as §5, §6, §7
# [8] = system: transferrin receptor 1 (TFRC) mRNA; test: TFRC gene expression by qRT-PCR in VCaP-EnzR cells; conditions: oligopeptide at 10 μM with […] μM ENZ
# Description: as §5, §6, §7
# [9] = 1 μM BIC alone, relative to ACTB
# [10] = oligopeptide at 10 μM with 0.4 μM BIC
# [11] = oligopeptide at 10 μM with 0.4 μM BIC, listed as FT-005-B
# [12] = oligopeptide at 10 μM with 10 μM BIC
# [13] = oligopeptide at 10 μM with 10 μM BIC, listed as FT-005-B
# [14] = oligopeptide at 10 μM with 10 μM BIC, listed as FT-007-B
# [15] = oligopeptide at 10 μM with 0.4 μM BIC, listed as FT-006-B
# [16] = oligopeptide at 10 μM with 0.4 μM BIC, listed as FT-008-B
# [17] = oligopeptide at 10 μM with 10 μM BIC, listed as FT-008-B
molecule,measurement,setting,value
"CC(O)(CS(=O)(=O)c1ccc(F)cc1)C(=O)Nc1ccc(C#N)c(C(F)(F)F)c1 (centres unmarked) [BIC, bicalutamide, reference compound]",IC50,"LNCaP cells; Homo sapiens, LNCaP clonogenic assay, read-out: IC50 of bicalutamide",0.4 µM
same,relative percent colony survival,LNCaP cells; 0.5 μM BIC alone,85%
same,relative percent colony survival,LNCaP cells; 1.0 μM BIC alone,25%
same,minimal inhibitory concentration (MIC) of bicalutamide,LNCaP cells,1 µM
same,minimal inhibitory concentration (MIC) of bicalutamide,LNCaP cells; listed as bicalutamide,0.5 µM
same,IC50,"PC3 cells; Homo sapiens, PC-3, PC3 clonogenic assay, read-out: IC50 of bicalutamide",10 µM
same,relative percent colony survival,"PC3 cells; PC3, 10 μM BIC alone",52%
same,minimal inhibitory concentration (MIC) of bicalutamide,"PC3 cells; PC3, concentration that begins to inhibit colony formation",10 µM
same,FTH1 Fold Change (single replicates),[1]; [9],1.0 (2×) and 1.1
same,"FTH1 Fold Change, Average",[1]; [9],1.0
same,TFRC Fold Change (single replicates),[2]; [9],1.0 (2×) and 1.2
same,"TFRC Fold Change, Average",[2]; [9],1.1
same,FTH1 Fold Change (single replicates),[3]; 10 μM BIC alone,0.9 and 1.0 and 1.2
same,"FTH1 Fold Change, Average",[3]; 10 μM BIC alone,1.0
same,TFRC Fold Change (single replicates),[4]; 10 μM BIC alone,1.0 and 1.1 and 1.2
same,"TFRC Fold Change, Average",[4]; 10 μM BIC alone,1.1
"LDEESGEP [FT-005, synthetic oligopeptide; -B / -E: tested with bicalutamide / enzalutamide]",decrease in survival compared to 10 μM bicalutamide monotreatment,"PC3 cells; PC3, 10 μM oligopeptide with 10 μM bicalutamide",approximately 70%
same,decrease in cell survival compared to […] enzalutamide with 160 SPH,VCaP cells,approximately 40%
same,relative survival,VCaP-EnzR cells,11%
same,"FTH1 Fold Change, Average",[1]; [10],2.2
same,FTH1 Fold Change (single replicates),[1]; [11],2.2 (2×) and 2.3
same,"TFRC Fold Change, Average",[2]; [10],0.6
same,TFRC Fold Change (single replicates),[2]; [11],0.7 and 0.6 (2×)
same,"FTH1 Fold Change, Average",[3]; [12],2.1
same,FTH1 Fold Change (single replicates),[3]; [13],2.2 and 2.1 (2×)
same,"TFRC Fold Change, Average",[4]; [12],0.6
same,TFRC Fold Change (single replicates),[4]; [13],0.7 and 0.5 (2×)
same,"FTH1 Fold Change, Average",[5],2.3
same,"TFRC Fold Change, Average",[6],0.6
same,"FTH1 Fold Change, Average",[7],3.2
same,"TFRC Fold Change, Average",[8],0.5
PREESDKP [FT-007],"FTH1 Fold Change, Average",[3]; [12],1.9
same,FTH1 Fold Change (single replicates),[3]; [14],1.9 (2×) and 2.0
same,"TFRC Fold Change, Average",[4]; [12],0.7
same,TFRC Fold Change (single replicates),[4]; [14],0.6 and 0.8 (2×)
same,"FTH1 Fold Change, Average",[5],1.9
same,"TFRC Fold Change, Average",[6],0.8
REESDKPMY [FT-006],"FTH1 Fold Change, Average",[1]; [10],1.8
same,FTH1 Fold Change (single replicates),[1]; [15],1.9 (2×) and 1.6
same,"TFRC Fold Change, Average",[2]; [10],0.9
same,TFRC Fold Change (single replicates),[2]; [15],0.9 (2×) and 0.8
same,"FTH1 Fold Change, Average",[7],2.6
same,"TFRC Fold Change, Average",[8],0.6
REESGEL [FT-008],"FTH1 Fold Change, Average",[1]; [10],2.0
same,FTH1 Fold Change (single replicates),[1]; [16],1.8 and 1.9 and 2.2
same,"TFRC Fold Change, Average",[2]; [10],0.8
same,TFRC Fold Change (single replicates),[2]; [16],0.8 (2×) and 0.9
same,"FTH1 Fold Change, Average",[3]; [12],1.8
same,FTH1 Fold Change (single replicates),[3]; [17],1.8 (2×) and 1.9
same,"TFRC Fold Change, Average",[4]; [12],0.9
same,TFRC Fold Change (single replicates),[4]; [17],0.8 and 0.9 (2×)
same,"FTH1 Fold Change, Average",[5],2.2
same,TFRC Fold Change (single replicates),[6],0.7
same,"TFRC Fold Change, Average",[6],0.7
same,"FTH1 Fold Change, Average",[7],2.5
same,"TFRC Fold Change, Average",[8],0.6
